A short description of data set [1]: randomized open-label pharmacokinetic study of oral-mucosal tablets versus oral 8 mg tablet. It counts as in vivo, human. To be noted: for AUC(0-t) / Cmax: human serum, mean, N=6, measurement substance = label. The protocol: A randomized, open-label study to assess the pharmacokinetic parameters of an oral-mucosal tablet containing Compound A and its bioavailability relative to an oral 8 mg tablet containing Compound A was performed.
The test was conducted in two parts: (1) a parallel-group design to evaluate the pharmacokinetic parameters of 3 doses of Compound A (0.25, 0.5 and 1 mg) in oral-mucosal tablets and (2) an open-label, randomized 2-period crossover design to assess the relative bioavailability (pharmacokinetic profile) of the oral-mucosal 0.5 mg tablet compared with the bioavailability of the oral 8 mg tablet.
For part (1), a total of 18 subjects were randomly assigned to 1 of the 3 dosing regimens (i.e., 0.25, 0.5 and 1 mg; 6 subjects per dose) and each subject received a single dose of Compound A at the assigned dose.
For part (2), a total of 24 subjects were randomly assigned to take either the oral-mucosal 0.5 mg tablet or the oral 8 mg tablet at a single dose during each of the two periods.
To evaluate the studies, the pharmacokinetic parameters of Compound A and M-II were measured, including maximum observed serum concentration (Cmax) and area under the serum concentration-time curve from time 0 to the last quantifiable concentration (AUC(0-tlqc)).

The nature of the next data set: solubility of compound A. Type of data set: physicochemical. To be noted: irrespective of pH.
Data set [2] relates to patients suffering from bipolar disorder. Description: acute depression in patients with bipolar disorder, double-blind randomized placebo-controlled trial (CGI-BP). It counts as in vivo, human. To be noted: oral 8 mg once daily up to 8 weeks; value below 0 favors Compound A; 95% CI; N=9; P value=0.001.
The nature of data set [3]: blood kinetics of unchanged form and active metabolite M-II after oral or sublingual administration to human (cross-over, open-label). Type of data set: in vivo. To be noted: for Cmax: serum, mean. The protocol:
Oral preparation and preparation for oral-mucosal absorption were measured for blood kinetics of unchanged form and active metabolite M-II after oral or sublingual administration to human. The plasma concentration before administration, and 5 min, 10 min, 15 min, 20 min, 30 min, 45 min, 60 min, 90 min, 120 min, 180 min, 240 min, 360 min, 480 min, 600 min, 720 min and 1440 min after administration was measured.
To be specific, symbol/term and definition thereof in this table are explained in the following. The study was conducted by cross-over method under open-label condition.
AUC(0-tlqc): Area under the serum concentration-time curve from time 0 to time of the last quantifiable concentration (tlqc), calculated using the linear trapezoidal rule.
AUC(0-inf): Area under the serum concentration-time curve from time 0 to infinity, calculated as AUC(0-inf)=AUC(0-tlqc)+lqc/λz, where tlqc is the time of last quantifiable concentration and lqc is the last quantifiable concentration. λz: Terminal elimination rate constant, calculated as the negative of the slope of the log-linear regression of the natural logarithm concentration-time curve during the terminal phase. Cmax: Maximum observed serum concentration. Tmax: Time to reach Cmax. Active metaboline M-II: (2S)-2-Hydroxy-N-{2-[(8S)-1,6,7,8-tetrahydro-2H-indeno[5,4-b]furan-8-yl]ethyl}propanamide

Data set [4] has as its system patients suffering from bipolar disorder and in the remission phase. Description: maintenance of remission phase in patients with bipolar disorder, double-blind randomized placebo-controlled trial. It counts as in vivo, human. To be noted: oral 8 mg once daily at bedtime. The protocol: Oral 8 mg formulation containing Compound A The test tablet was administered to a group of patients suffering from bipolar disorder and in the remission phase, once daily at bedtime for 6 months. A placebo was administered once daily at bedtime to a separate control group of patients in the remission phase of bipolar disorder for 6 months. This study was performed as a double-blind, randomized, placebo-controlled trial. The time from randomization to relapse over 6 months of treatment is determined by the Primary Investigator (PI) or defined by any of the following criteria: depression [Montgomery-Asberg Depression Rating Scale (MADRS) score ≧16]; mania/hypomania [Young Mania Rating Scale (YMRS) total score ≧14]; clinical global impressions bipolar version (CGI-BP); cumulative proportion of participants in each arm (placebo or Compound A) surviving without relapse [MADRS score ≧16 and YMRS total score ≧14], a medication initiation or change for manic/depressed/mixed symptoms, a hospitalization for manic/depressed/mixed symptoms and suicide risk or imminent risk of suicide.

Setting [5] is: single oral-mucosal tablet dose of Compound A 0.25 mg.
The mark [6] stands for this setting: single oral-mucosal tablet dose of Compound A 0.5 mg.
[7] abbreviates: single oral-mucosal tablet dose of Compound A 1 mg.

In brackets after ≈: the same amount, converted by molar mass. Where only a bound is given, the exact number is not on record here.

Take `C[C@H](O)C(=O)NCC[C@@H]1CCc2ccc3c(c21)CCO3` [M-II, (2S)-2-Hydroxy-N-{2-[(8S)-1,6,7,8-tetrahydro-2H-indeno[5,4-b]furan-8-yl]ethyl}propanamide]: the AUC(0-t) (commonly the area under the concentration-time curve up to a stated or last time point) in data set [1] (setting [5]) was found to be 4.64 ng·h/mL; in data set [1] (setting [6]), 10.5 ng·h/mL; in data set [1] (setting [7]) it was 20.2 ng·h/mL. In addition, the Cmax (usually the highest concentration seen after dosing) in data set [1] (setting [5]) was 1.85 ng/mL; in data set [1] (setting [6]) it was 3.74 ng/mL; in data set [1] (setting [7]) it was 7.68 ng/mL. The “fraction of exposure compared to the approved oral 8 mg tablet” value in data set [1] (oral-mucosal administration 0.5 mg) was less than 7%.
On to `CCC(=O)NCC[C@@H]1CCc2ccc3c(c21)CCO3` [compound A, (S)—N-[2-(1,6,7,8-tetrahydro-2H-indeno[5,4-b]furan-8-yl)ethyl]propionamide], for which the solubility (as a rule, the dissolved amount per volume that the medium holds) in “solubility of compound A” is approximately 200 µg/mL (≈ 771 µM). Further, the AUC(0-t) amounted to 2.6 ng·h/mL in data set [1] (setting [5]), 6.23 ng·h/mL in data set [1] (setting [6]) and 7.87 ng·h/mL in data set [1] (setting [7]). The Cmax in data set [1] (setting [5]) is 3.14 ng/mL; in data set [1] (setting [6]), 5.85 ng/mL; in data set [1] (setting [7]) it was 9.57 ng/mL; in data set [3] (oral, dose 8 mg), 4.76 ± 5.19 ng/mL; in data set [3] (sublingual, dose 0.5 mg), 4.74 ng/mL. Moreover, the “CGI-BP severity for depression, longitudinal analysis of change in outcome” value in data set [2] is −0.1 (−0.16 to −0.05). The “AUC(0-inf) unchanged/metabolite ratio” value in data set [3] (oral administration) turned out to be 0.03; in data set [3] (sublingual administration), 0.30. In addition, the Cmax unchanged/metabolite ratio is 0.07 in data set [3] (oral administration) and 1.13 in data set [3] (sublingual administration). The “Cumulative Proportion of Patients in each arm surviving without relapse” value in data set [4] (Baseline) stood at 1.00; in data set [4] (Month 1), 0.929; in data set [4] (Month 2), 0.849; in data set [4] (Month 3), 0.716; in data set [4] (Month 4), 0.661; in data set [4] (Month 5) it was 0.632. Also, in data set [4] (Month 6), the “Cumulative Proportion of Patients in each arm surviving without relapse” value was 0.566.

Source of the values: US8642649B2, “Orally dispersible tablet” (Takeda Pharmaceutical Company Limited, priority 2011, dated 2014).
